Data set [1] concerns M. abscessus clinical isolate n. 10. The data set is described as follows: REMA MIC90, broad spectrum of microorganisms. The class given is cell-based. As to conditions: Mycobacteroides abscessus, M. abscessus clinical isolate n. 10, resistant to moxifloxacin, doxycycline, read-out: MIC to Compound 2. As for the experimental part: (§1) To determine the in vitro activity of compounds (MIC90) against Mycobacterium abscessus ATCC 19977, the resazurin reduction microplate assays (REMA) is performed. Briefly, serial 2-fold dilutions of drug are prepared in 96-well microtiter plates (Fluoronunc, Thermo Fisher, Waltham, MA, USA) in 100 μL of Middlebrook 7H9 medium (Difco), supplemented with 10% OADC without addition of Tween 80. Then, M. abscessus log-phase cultures were diluted (OD600=0.02) and added in the 96-well microtiter plate. Growth controls containing no compound and sterile controls without inoculum are also included. Also, a compound known to be active against M. abscessus growth is included as positive control. After 1 day of incubation at 37° C., 10 μL of resazurin (0.025% w/v) is added to each well, and bacterial viability is assessed after a further 24 h of incubation using a Fluoroskan™ Microplate Fluorometer (Thermo Fisher Scientific, Waltham, MA, USA; excitation=544 nm, emission=590 nm). Bacterial viability was calculated as a percentage of resazurin turnover in the absence of compound (MIC90). is used as positive control. Results are expressed as the average of at least three independent replicates and presented on the following Table 1.
(§2) By using the same procedure, the compound according to Example B (compound 2) was tested on broad spectrum of microorganisms and the corresponding results are presented in the below Table 2.

In data set [2] the test system is M. avium clinical isolate n. 1. The data set is described as follows: REMA MIC90, broad spectrum of microorganisms. The class given is cell-based. The following applies: Mycobacterium avium, M. avium clinical isolate n. 1, resistant to linezolid, read-out: MIC to Compound 2. Here is the method:
as §1, §2

The subject of data set [3] is Mycobacterium abscessus ATCC 19977. The data set is described as follows: REMA MIC90 against M. abscessus ATCC 19977. As to conditions: Mycobacteroides abscessus, ATCC19977. The class given is cell-based. As for the experimental part:
as §1, with “Briefly,” for “To determine the in vitro activity of compounds (MIC90) against Mycobacterium abscessus ATCC 19977, the resazurin reduction microplate assays (REMA) is performed. Briefly,”, “Also, a compound known to be active against M. abscessus growth is included as positive control.” left out, “Bacterial viability was calculated as a percentage of resazurin turnover in the absence of compound (MIC90). is used as positive control.” left out

Data set [4] has as its system Staphylococcus aureus ATCC 25923. The data set is described as follows: REMA MIC90, broad spectrum of microorganisms. The class given is cell-based. As to conditions: ATCC25923, read-out: MIC to Compound 2.
Data set [5] is classed as physicochemical. The following applies: at a temperature of 20±3° C., from accelerated aging at 55±2° C. As for the experimental part: The aim of the study is to investigate the physical and chemical properties of a substances at elevated temperature and to establish an experimental expiration date for the substances (saline form vs base form).
• 5-(ethoxycarbonyl)pyridine-2-thiolate 1-oxide (base form) • sodium 5-(ethoxycarbonyl)pyridine-2-thiolate 1-oxide (compound 2—salt form)
• Storage temperature: (55±2° C.)
Double layer polyethylene bag. The package is placed in a bag made of laminated aluminum foil. Each package is wrapped in wrapping paper. […]

In data set [6] the test system is M. tuberculosis H37Rv. The data set is described as follows: REMA MIC90, broad spectrum of microorganisms. The class given is cell-based. The following applies: Mycobacterium tuberculosis, Wild-type, read-out: MIC to Compound 2.
Data set [7] has as its system Pseudomonas aeruginosa PAO1. The data set is described as follows: REMA MIC90, broad spectrum of microorganisms. The class given is cell-based. The following applies: Pseudomonas aeruginosa PAO1, in presence of efflux inhibitor, read-out: MIC to Compound 2.
Data set [8] relates to M. bovis BCG Pasteur. The data set is described as follows: microbe, parasite or virus in culture. The class given is cell-based. The following applies: Mycobacterium tuberculosis variant bovis BCG, read-out: MIC to Compound 2.
For data set [9], the system named is M. smegmatis mc2155. The data set is described as follows: REMA MIC90, broad spectrum of microorganisms. The class given is cell-based. The following applies: Mycolicibacterium smegmatis, M. smegmatis mc2155, Wild-type, read-out: MIC to Compound 2.
Data set [10] deals with Aspergillus niger. The data set is described as follows: Antifungal agar well diffusion assay. As to conditions: 20 μL water solution in 4 mm well.
Experimental: The well diffusion test was performed using Casitone agar. The inoculum used was prepared using the Candida or Aspergillus strains from a 24-hour culture on Sabouraud dextrose agar, a suspension was made in a sterile saline solution (0.85%). The turbidity of the suspension was adjusted with a spectrophotometer at 530 nm to obtain a final concentration to match that of a 0.5 McFarland standard (0.5-2.5×10^3). 20 mL of Bacto-casitone were melted, cooled to 55° C. and then inoculated with 1 mL of the organism suspension. The inoculated agar was poured into the assay plate (9 cm in diameter) and allowed to cool down on a leveled surface.
The nature of data set [11]: Acute toxicity, intragastric administration in mice. The class given is in vivo, C57BL/6 male white mice. As to conditions: per os, doses lower than 300 mg/kg, 14 days observation. As for the experimental part:
Acute and subacute toxicity of compound 2 was experimentally studied for intragastric administration in white mice. […] The compound was solubilized in saline to be administrated to animals.
Experimental animals: 35 C57BL/6 male white mice, 7 weeks old, weight 20-22 g. The following experimental procedure was used: • administration route of the compound: per os; • number of doses: […]; • dosage: 100-200-250-300-500-600-750 mg/kg; • volume introduced into 0.3 ml/20 g (15 ml/kg); • data recorded: behavior, weight changes, rectal temperature, mortality.

Read-outs that look alike come from different tables or passages of the source.

This is an account of results in patent publication US20260191845A1, “PYRIDINE-2-THIOL 1-OXIDE DERIVATIVES AND THEIR USE FOR TREATMENT OF MAMMALIAN INFECTIONS CAUSED BY MYCOBACTERIUM OR FUNGI” (priority 2022, published 2026).

Consider `CCOC(=O)c1ccc([S-])[n+]([O-])c1.[Na+]` [Compound 2, Sodium 5-(ethoxycarbonyl)pyridine-2-thiolate 1-oxide], for which the MIC in [1] is 500 mg/L; in data set [2], 500 mg/L; in [3] (MIC90, REMA, Table 1, read-out: MIC in M. abscessus ATCC 19977) it was 125 mg/L; in [3] (MIC90, M. abscessus ATCC 19977, Wild-type, Table 2, read-out: MIC to Compound 2), 250 mg/L; in data set [4] it was 8000 mg/L; in data set [6], 25 mg/L. The MIC in [7] stood at 1000 mg/L; in [8] it was 62.5 mg/L; in [9] it was 1000 mg/L. Moreover, in [5], the Experimental shelf life result is “about 2 years”. Also, the “Inhibition Zone of Test Microorganism” value in [10] is 28 mm. For the same compound, the “Acute toxicity: animal death” value in data set [11] is “there were no cases of animal death”. Also, the “Acute toxicity: general state and behavior” value in data set [11] was “did not cause changes in the general state and behavior of the mice”.
